Test [1] addresses T1, AKR1C3 (Homo sapiens (Human), UniProt P42330). Kind of test: AKR1C3 inhibition in a cell-based system (transfected HEK293 cells, coumberol fluorescence). The settings on record: HEK293 cells transfected with AKR1C3 expression plasmid; read-out: Cellular AKR1C3 inhibition IC50. How it is done:
The inhibition of AKR1C3 by the substances described in this invention was measured in a cell-based assay using […] as the substrate for the AKR1C3 (Halim, M., Yee, D. J., and Sames, D., J. AM. CHEM. SOC. 130, 14123-14128 (2008) and Yee, D. J., Balsanek, V., Bauman, D. R., Penning, T. M., and Sames, D., Proc. Natl. Acad. Sci. USA 103, 13304-13309 (2006)) (cf. Example 48).
The cell system used was HEK293 cells (ATCC, USA) (cell culture medium: DMEM, 1.5 g of glucose, 10% FCS, PSG). The cells were transfected with an AKR1C3 expression plasmid (pCMV6-AC-AKR1C3, GenBank Accession No. NM_003739.4) overnight (X-tremeGENE HP, Roche). The next morning, the cells were sown into black 96-well culture plates with a cell density of 40 000 cells/well (Greiner Bio-One, Frickenhausen, Germany). 7 h later, the cells were incubated with the test substances (dissolved in 100× concentration in DMSO, final concentration between 10^−11M and 10^−5M) and […] (dissolved in cell culture medium, final concentration 5×10^−6M) overnight. The following morning, the fluorescence of coumberol was measured at 535 nm (excitation at 355 nm) with a suitable measuring instrument (Mithras, from Berthold). […] The data were normalized (transfected cells without inhibitor, only DMSO=0% inhibition; transfected cells, 10 μM EM-1404 inhibitor [F. Labrie et al. U.S. Pat. No. 6,541,463, 2003]=100% inhibition) and IC50 values were calculated by a 4-parameter fit.

The target in test [2] is T1, AKR1C3. Kind of test: AKR1C3 enzyme assay (coumberone reduction, fluorescence). It counts as biochemical. The conditions noted are these: recombinant human AKR1C3, coumberone 0.3 μM, NADPH 10 μM; read-out: AKR1C3 enzyme inhibition IC50. How it is done:
The AKR1C3-inhibitory action of the substances of this invention was measured in the AKR1C3 assay described in the paragraphs which follow. Essentially, the enzyme activity is measured by quantifying the coumberol formed from coumberone ([…]., and […]. AM. CHEM. SOC. 130, 14123-14128 (2008) […]., Bauman, D. R., Penning, T. M., and […]., Proc. Natl. Acad. Sci. USA 103, 13304-13309 (2006)). In this assay, the increase in the highly fluorescent coumberol can be determined by NADPH (nicotinamide adenine dinucleotide phosphate)-dependent reduction of the nonfluorescent coumberone by AKR1C3. […] NM_003739). This was expressed as the GST (glutathione S-transferase) fusion protein in E. coli and purified by means of glutathione-Sepharose affinity chromatography. The GST was removed by thrombin digestion with subsequent size exclusion chromatography (Dufort, I., Rheault, P., Huang, X F., Soucy, P., and Luu-The, V., Endocrinology 140, 568-574 (1999)). […] The concentration of the AKR1C3 was matched to the respective activity of the enzyme preparation and set such that the assay worked within the linear range. Typical concentrations were in the region of 1 nM. The reaction was stopped by adding 5 μl of a stop solution consisting of the inhibitor EM-1404 [F. Labrie et al. U.S. Pat. […] Subsequently, the fluorescence of coumberol was measured at 520 nm (excitation at 380 nm) with a suitable measuring instrument (Pherastar from BMG Labtechnologies).

Another test addresses recombinant human AKR1C1 (Homo sapiens (Human), UniProt Q04828). Kind of test: AKR1C1 inhibition (NADPH consumption, phenanthrenequinone). It counts as biochemical. How it is done: (§1) The AKR1C1/AKR1C2/AKR1C4-inhibitory action of the inventive substances, for determination of the selectivity of this invention, was measured in the assay described in the paragraphs which follow. Essentially, the enzyme activity is measured by the quantification of NADPH (nicotinamide adenine dinucleotide phosphate) consumption in the conversion of phenanthrenequinone (PQ) by the AKR1C enzymes. […] NM_001353.5, NM_001354, NM_001818). This was expressed as the GST (glutathione S-transferase) fusion protein in E. coli and purified by means of glutathione-Sepharose affinity chromatography. The GST was removed by thrombin digestion with subsequent size exclusion chromatography (Dufort, I., Rheault, P., Huang, X F., Soucy, P., and Luu-The, V., Endocrinology 140, 568-574 (1999)). […] The mixture was incubated at 37° C. for 3 h, and the fluorescence was determined at the end of the reaction. […] Typically, the test substances were tested on the same microtitre plate in […] in the range from 10 μM to 1 pM (10 μM, 1 μM, 100 nM, 10 nM, 1 nM, 100 pM, 10 pM, 1 pM). As described, the pharmacological substances claimed were tested for their inhibitory effect on AKR1C enzymes 1, 2 and 4 (see Table 4).

The next test deals with recombinant human AKR1C4 (Homo sapiens (Human), UniProt P17516). Kind of test: AKR1C4 inhibition (NADPH consumption, phenanthrenequinone). It counts as biochemical. How it is done: as §1
In the next test the target is recombinant human AKR1C2 (Homo sapiens (Human), UniProt P52895). Kind of test: AKR1C2 inhibition (NADPH consumption, phenanthrenequinone). It counts as biochemical. As for the experimental part:
as §1

The target of the next test is Human CYP17A1 (Homo sapiens (Human), UniProt P05093). Kind of test: Inhibition of Cyp17A1 (recombinant enzyme, 3H-progesterone conversion, HPLC). The settings on record: for IC50: human CYP17, mean of 3 or 4 independent IC50 values, read-out: IC50 ± SD CYP17. The class given is biochemical. How it is done:
The inhibition of CYP17A1 by the test compounds was evaluated by means of recombinant enzyme. Human CYP17A1 was expressed in E. coli (Ehmer, P. B. et al.; J. Steroid Biochem. Mol. […] After evaporating the organic phase, the steroids were taken up in acetonitrile. 16α-Hydroxyprogesterone, 17α-hydroxyprogesterone and progesterone were separated with acetonitrile/water (45:55) as mobile phase on a C18 reverse phase chromatography column (Nucleodur C18 Gravity, 3 μm, Macherey-Nagel, Düren) in an HPLC System (Agilent 1100 Series, Agilent Technologies, Waldbronn). Detection and quantification of the steroids were conducted by means of a Radioflow detector (Berthold Technologies, Bad Wildbad). The inhibition was calculated by the following formula: [formula] Each value was calculated from at least three independent experiments.

Results on five compounds are retold here after patent US9714266B2, “Estra-1,3,5(10),16-tetraene-3-carboxamides for inhibition of 17β-hydroxysteroid dehydrogenase (AKR1C3)” (priority 2013, dated 2017).

Values joined by “and” are separate entries in the source; they are usually repeats but may differ in a detail not shown here. Equal entries are not always repeated.

Chain of recombinant human AKR1C1 (Q04828 whole entry, the tested form may be a part): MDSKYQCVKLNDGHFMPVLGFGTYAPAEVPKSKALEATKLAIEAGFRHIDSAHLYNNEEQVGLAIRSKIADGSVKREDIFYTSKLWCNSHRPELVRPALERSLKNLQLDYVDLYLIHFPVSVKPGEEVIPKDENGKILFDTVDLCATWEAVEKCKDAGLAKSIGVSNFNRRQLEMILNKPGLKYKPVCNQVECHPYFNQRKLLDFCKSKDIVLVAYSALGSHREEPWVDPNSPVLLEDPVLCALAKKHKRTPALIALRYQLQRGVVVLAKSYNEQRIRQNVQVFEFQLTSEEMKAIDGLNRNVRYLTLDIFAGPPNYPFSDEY
Chain of recombinant human AKR1C2 (P52895 whole entry): as the sequence (Q04828 whole entry, the tested form may be a part) above, with T38V, R47H, L54V, C87S, V151M, R170H, Q172L counted along it
T1 sequence (P42330 whole entry): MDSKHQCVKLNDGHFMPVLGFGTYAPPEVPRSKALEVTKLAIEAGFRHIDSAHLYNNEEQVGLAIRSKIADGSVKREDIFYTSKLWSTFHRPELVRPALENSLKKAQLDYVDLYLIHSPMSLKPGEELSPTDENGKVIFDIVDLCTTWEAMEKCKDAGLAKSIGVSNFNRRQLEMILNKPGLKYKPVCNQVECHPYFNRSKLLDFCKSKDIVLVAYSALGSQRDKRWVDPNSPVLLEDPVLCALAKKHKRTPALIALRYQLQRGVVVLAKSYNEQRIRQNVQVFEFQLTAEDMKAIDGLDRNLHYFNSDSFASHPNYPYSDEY
Chain of recombinant human AKR1C4 (P17516 whole entry): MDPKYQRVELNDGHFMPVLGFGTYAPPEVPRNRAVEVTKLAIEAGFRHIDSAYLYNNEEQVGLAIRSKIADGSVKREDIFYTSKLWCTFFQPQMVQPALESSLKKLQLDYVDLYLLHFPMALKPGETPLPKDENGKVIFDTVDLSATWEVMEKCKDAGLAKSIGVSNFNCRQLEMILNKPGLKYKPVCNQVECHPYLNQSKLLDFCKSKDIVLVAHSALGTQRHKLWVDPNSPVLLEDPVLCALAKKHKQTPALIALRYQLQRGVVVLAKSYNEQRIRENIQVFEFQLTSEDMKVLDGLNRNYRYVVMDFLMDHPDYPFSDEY
Chain of Human CYP17A1 (P05093 whole entry): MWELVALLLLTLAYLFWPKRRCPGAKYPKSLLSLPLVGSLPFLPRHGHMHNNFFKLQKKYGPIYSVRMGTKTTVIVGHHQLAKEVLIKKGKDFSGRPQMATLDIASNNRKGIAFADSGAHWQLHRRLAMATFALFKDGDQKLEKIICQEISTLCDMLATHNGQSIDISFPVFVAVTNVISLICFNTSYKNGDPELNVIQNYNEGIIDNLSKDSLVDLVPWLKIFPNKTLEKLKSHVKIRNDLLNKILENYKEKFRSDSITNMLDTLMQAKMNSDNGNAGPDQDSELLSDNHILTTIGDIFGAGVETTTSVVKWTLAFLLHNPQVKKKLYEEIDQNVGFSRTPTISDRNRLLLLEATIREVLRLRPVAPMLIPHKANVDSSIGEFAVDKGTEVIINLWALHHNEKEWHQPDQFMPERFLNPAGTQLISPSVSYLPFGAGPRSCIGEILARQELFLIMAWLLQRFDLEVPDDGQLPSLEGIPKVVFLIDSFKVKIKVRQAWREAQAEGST

The IC50 is the concentration that inhibits the measured activity by half. As to `C[C@]12CC[C@@H]3c4ccc(C(N)=O)cc4CC[C@H]3[C@@H]1CC=C2c1cccnc1` [Example 1, 17-(pyridin-3-yl)oestra-1,3,5(10),16-tetraene-3-carboxamide], the IC50 is 27 nM and 28 nM and 66 nM and 13 nM at AKR1C3 [1]; 5 nM and 6 nM at AKR1C3 [2]. At recombinant human AKR1C1, the “Inhibition of AKR1C1 (in words)” value is recorded as “no inhibition”. On recombinant human AKR1C1 (tested up to 10 μM), the “AKR1C1 enzyme inhibition IC50” value is given as “no effect”. Further, the “Inhibition of AKR1C4 (in words)” value at recombinant human AKR1C4 is “no inhibition”. Moreover, at recombinant human AKR1C4 (tested up to 10 μM), the “AKR1C4 enzyme inhibition IC50” value was “no effect”. For the same compound, the “Inhibition of AKR1C2 (in words)” value at recombinant human AKR1C2 was “no inhibition”. The “AKR1C2 enzyme inhibition IC50” value on recombinant human AKR1C2 (tested up to 10 μM) is “no effect”.
Take `C[C@]12CC[C@@H]3c4ccc(C(N)=O)cc4CC[C@H]3[C@@H]1CC=C2c1cncc(F)c1` [Example 4, 17-(5-fluoropyridin-3-yl)oestra-1,3,5(10),16-tetraene-3-carboxamide]: the concentration for half-maximal inhibition (IC50) on AKR1C3 [2] was 4 nM; on Human CYP17A1, greater than 20000 nM.
For `C[C@]12CC[C@@H]3c4ccc(C(=O)NCC(O)C(F)(F)F)cc4CC[C@H]3[C@@H]1CC=C2c1cncc(F)c1` (mixture of isomers) [Example 20, 17-(5-fluoropyridin-3-yl)-N—[(RS)-3,3,3-trifluoro-2-hydroxypropyl]oestra-1,3,5(10),16-tetraene-3-carboxamide], the IC50 on AKR1C3 [1] is 32 nM and 42 nM; on AKR1C3 [2], 12 nM and 8 nM and 20 nM and 16 nM; at Human CYP17A1 it was greater than 20000 nM.
Turning to `O=C1OC(c2ccc(O)cc2)(c2ccc(O)cc2)c2ccccc21` [phenolphthalein], the “Inhibition of AKR1C1 (in words)” value at recombinant human AKR1C1 was “shows inhibition”. In addition, the concentration for half-maximal inhibition (IC50) is 46 nM and 60 nM at recombinant human AKR1C1 (tested up to 10 μM, read-out: AKR1C1 enzyme inhibition IC50); 21 nM and 17 nM on recombinant human AKR1C4 (tested up to 10 μM, read-out: AKR1C4 enzyme inhibition IC50); 554 nM and 438 nM at recombinant human AKR1C2 (tested up to 10 μM, read-out: AKR1C2 enzyme inhibition IC50). In addition, the “Inhibition of AKR1C4 (in words)” value on recombinant human AKR1C4 was “shows inhibition”. Further, the “Inhibition of AKR1C2 (in words)” value at recombinant human AKR1C2 is “shows inhibition”.
As for `C[C@]12CC[C@H](O)CC1=CC[C@@H]1[C@@H]2CC[C@]2(C)C(c3cccnc3)=CC[C@@H]12` [Abiraterone, reference compound], the “Inhibition of Cyp17A1 (in words)” value at Human CYP17A1 (up to a substance concentration of 20 μM where stated) is given as “active”.
